What was measured:
[1] = target: Ribosomal protein S6 kinase alpha-1 (Homo sapiens, UniProt Q15418); test: Selectivity interaction (Kinase panel (DSF assay)) EUB0001559a RPS6KA1
[2] = target: Dual specificity protein kinase CLK2 (Homo sapiens, UniProt P49760); test: Selectivity interaction (KinomeScan (DiscoverX)) EUB0001079a CLK2; settings: at 1 µM
[3] = target: T1, Tyrosine-protein kinase JAK3 (Homo sapiens) (UniProt P52333); test: Selectivity interaction (KinomeScan (DiscoverX)) EUB0001619a JAK3; settings: at 1 µM
T1 sequence (whole entry): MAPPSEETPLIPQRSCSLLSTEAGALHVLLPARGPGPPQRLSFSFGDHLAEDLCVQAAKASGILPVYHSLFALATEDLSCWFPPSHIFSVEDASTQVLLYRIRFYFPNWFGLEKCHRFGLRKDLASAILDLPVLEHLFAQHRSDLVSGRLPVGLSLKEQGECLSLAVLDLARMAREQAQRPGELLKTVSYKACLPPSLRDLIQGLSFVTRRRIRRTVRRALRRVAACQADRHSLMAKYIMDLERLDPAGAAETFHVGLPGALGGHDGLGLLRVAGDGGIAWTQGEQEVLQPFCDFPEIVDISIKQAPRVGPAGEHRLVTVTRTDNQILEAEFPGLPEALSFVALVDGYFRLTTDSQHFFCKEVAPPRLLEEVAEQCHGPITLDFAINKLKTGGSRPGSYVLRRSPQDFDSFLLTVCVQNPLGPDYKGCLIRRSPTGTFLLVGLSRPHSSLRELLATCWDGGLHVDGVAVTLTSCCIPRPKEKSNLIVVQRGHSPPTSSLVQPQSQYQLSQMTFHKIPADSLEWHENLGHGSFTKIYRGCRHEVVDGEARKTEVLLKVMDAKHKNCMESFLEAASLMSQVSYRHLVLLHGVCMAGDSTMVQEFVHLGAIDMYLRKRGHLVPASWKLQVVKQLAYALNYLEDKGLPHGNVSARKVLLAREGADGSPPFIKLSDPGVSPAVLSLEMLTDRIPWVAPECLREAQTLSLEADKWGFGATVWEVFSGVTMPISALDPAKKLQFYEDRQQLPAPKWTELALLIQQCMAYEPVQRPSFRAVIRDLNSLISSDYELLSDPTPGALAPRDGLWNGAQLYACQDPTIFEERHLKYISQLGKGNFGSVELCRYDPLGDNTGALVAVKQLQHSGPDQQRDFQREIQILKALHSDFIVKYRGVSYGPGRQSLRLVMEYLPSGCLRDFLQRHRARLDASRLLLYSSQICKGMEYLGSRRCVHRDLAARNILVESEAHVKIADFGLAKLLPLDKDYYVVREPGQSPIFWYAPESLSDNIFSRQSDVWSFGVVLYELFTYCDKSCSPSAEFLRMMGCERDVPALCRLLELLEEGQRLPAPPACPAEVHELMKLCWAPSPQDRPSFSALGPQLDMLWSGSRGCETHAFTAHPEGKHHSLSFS

[4] = target: Rho-associated protein kinase 1 (Homo sapiens) (UniProt Q13464); test: Selectivity interaction (KinomeScan (DiscoverX)) EUB0000607a ROCK1; settings: at 10 µM
[5] = target: T2, Cyclin-dependent kinase 11A (Homo sapiens) (UniProt Q9UQ88); test: Selectivity interaction (KinomeScan (DiscoverX)) EUB0000618a CDK11A; settings: at 10 µM
T2 sequence (whole entry): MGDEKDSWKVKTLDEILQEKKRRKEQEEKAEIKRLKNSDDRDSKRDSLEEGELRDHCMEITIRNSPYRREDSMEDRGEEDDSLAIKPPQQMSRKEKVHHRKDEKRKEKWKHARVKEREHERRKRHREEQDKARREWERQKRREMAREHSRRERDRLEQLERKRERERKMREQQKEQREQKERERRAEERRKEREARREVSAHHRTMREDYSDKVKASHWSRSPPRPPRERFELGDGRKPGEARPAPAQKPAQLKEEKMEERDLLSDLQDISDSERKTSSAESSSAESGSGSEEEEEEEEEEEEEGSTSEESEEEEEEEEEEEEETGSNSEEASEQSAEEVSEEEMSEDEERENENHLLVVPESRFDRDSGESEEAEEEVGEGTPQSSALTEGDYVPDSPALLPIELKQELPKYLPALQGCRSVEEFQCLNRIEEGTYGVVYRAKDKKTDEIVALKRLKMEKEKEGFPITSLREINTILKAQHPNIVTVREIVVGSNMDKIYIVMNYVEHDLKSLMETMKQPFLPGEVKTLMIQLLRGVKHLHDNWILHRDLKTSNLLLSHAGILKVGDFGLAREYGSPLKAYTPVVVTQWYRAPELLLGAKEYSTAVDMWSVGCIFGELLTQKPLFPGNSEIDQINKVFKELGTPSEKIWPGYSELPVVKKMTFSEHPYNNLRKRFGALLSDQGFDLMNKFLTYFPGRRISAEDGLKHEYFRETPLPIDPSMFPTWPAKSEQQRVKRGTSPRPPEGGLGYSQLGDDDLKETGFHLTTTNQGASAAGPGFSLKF

[6] = target: Tyrosine-protein kinase ABL1 (Homo sapiens, UniProt P00519); test: Selectivity interaction (Kinase panel (Invitrogen)) EUB0000639a ABL1; settings: at 200 nM
[7] = target: T3, Serine/threonine-protein kinase DCLK2 (Homo sapiens) (UniProt Q8N568); test: Selectivity interaction (Ambit KINOMEscan and KiNATiv profiling in Jurkat cells) EUB0000090b DCLK2; format: cell-based; settings: at 1 µM
T3 sequence (whole entry): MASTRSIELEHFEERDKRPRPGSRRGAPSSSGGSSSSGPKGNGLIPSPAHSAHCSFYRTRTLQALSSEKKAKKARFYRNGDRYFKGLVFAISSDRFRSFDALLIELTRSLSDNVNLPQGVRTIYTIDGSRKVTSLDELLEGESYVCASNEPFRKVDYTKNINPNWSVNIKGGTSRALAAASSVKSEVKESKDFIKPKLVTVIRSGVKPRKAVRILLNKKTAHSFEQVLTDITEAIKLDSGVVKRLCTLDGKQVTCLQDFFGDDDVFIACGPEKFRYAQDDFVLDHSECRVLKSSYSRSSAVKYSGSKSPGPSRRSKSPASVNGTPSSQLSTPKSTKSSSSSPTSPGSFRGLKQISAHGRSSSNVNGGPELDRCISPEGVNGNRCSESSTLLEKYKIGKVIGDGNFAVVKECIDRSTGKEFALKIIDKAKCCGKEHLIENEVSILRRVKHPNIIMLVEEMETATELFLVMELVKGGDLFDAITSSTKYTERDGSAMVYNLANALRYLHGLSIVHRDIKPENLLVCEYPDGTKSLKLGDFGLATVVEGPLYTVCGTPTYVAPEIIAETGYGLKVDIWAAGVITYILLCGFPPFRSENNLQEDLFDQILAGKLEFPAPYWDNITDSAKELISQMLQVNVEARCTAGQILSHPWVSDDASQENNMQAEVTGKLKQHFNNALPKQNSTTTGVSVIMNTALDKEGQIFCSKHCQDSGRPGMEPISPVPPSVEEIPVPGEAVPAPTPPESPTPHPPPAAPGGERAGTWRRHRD

Ribosomal protein S6 kinase alpha-1, sequence (Q15418 whole entry): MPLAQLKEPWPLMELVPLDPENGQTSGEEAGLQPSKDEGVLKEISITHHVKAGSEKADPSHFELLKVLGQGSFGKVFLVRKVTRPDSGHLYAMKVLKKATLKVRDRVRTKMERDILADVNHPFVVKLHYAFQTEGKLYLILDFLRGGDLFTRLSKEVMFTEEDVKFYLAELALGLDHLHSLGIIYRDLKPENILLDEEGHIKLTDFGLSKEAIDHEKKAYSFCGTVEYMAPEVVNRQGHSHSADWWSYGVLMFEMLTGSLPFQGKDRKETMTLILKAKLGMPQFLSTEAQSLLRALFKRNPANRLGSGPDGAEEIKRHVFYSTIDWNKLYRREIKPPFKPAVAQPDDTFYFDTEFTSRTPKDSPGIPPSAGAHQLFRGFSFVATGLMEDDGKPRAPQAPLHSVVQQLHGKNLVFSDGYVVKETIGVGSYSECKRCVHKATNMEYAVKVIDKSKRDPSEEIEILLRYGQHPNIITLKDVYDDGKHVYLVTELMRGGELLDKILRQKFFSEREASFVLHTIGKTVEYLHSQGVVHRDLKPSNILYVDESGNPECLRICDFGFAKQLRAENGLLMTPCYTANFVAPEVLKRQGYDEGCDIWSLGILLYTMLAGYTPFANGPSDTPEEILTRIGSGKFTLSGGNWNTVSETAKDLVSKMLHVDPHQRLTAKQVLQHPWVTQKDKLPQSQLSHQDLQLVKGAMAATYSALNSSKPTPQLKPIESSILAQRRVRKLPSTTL
Dual specificity protein kinase CLK2, sequence (P49760 whole entry, looked up): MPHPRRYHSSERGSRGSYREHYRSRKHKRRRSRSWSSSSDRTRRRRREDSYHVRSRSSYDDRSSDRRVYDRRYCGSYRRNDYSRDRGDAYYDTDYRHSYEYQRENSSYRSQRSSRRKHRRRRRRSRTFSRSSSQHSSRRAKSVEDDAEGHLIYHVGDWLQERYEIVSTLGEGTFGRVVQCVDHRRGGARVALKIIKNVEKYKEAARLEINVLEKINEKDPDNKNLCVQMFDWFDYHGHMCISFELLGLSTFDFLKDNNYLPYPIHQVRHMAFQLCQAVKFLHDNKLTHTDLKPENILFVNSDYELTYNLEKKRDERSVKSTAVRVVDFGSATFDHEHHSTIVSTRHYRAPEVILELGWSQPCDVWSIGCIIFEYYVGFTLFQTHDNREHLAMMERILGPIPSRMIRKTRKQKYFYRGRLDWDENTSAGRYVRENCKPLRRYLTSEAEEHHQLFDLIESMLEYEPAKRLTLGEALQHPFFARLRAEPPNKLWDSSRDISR
Tyrosine-protein kinase ABL1, sequence (P00519 whole entry): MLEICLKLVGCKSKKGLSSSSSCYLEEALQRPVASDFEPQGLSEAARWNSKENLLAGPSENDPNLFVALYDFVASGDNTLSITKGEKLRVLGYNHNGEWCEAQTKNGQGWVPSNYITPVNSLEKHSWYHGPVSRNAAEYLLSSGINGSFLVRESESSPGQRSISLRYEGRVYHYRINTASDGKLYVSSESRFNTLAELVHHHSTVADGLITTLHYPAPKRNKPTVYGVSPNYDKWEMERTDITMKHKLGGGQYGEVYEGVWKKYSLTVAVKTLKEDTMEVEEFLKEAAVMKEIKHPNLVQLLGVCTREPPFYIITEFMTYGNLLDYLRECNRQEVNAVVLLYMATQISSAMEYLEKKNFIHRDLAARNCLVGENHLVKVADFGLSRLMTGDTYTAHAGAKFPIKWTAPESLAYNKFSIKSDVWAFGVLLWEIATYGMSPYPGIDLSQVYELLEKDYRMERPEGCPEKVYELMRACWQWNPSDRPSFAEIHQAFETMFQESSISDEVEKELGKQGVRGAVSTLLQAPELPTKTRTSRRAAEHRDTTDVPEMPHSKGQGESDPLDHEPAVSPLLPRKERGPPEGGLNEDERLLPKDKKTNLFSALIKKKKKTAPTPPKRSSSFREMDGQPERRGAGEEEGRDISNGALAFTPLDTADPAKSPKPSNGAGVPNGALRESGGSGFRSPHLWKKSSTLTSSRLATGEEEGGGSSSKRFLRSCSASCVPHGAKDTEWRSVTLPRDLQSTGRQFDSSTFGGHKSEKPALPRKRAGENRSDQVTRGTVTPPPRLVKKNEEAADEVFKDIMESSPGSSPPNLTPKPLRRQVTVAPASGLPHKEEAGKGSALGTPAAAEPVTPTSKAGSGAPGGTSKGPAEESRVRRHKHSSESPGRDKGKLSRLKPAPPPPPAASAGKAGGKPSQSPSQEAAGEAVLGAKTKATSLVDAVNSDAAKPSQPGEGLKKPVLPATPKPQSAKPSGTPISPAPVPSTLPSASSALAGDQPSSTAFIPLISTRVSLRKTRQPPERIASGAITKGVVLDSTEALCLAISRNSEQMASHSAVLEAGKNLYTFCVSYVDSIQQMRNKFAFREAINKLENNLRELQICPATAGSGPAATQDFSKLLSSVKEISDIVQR
Rho-associated protein kinase 1 (Homo sapiens), sequence (Q13464 2-1354 limits assumed): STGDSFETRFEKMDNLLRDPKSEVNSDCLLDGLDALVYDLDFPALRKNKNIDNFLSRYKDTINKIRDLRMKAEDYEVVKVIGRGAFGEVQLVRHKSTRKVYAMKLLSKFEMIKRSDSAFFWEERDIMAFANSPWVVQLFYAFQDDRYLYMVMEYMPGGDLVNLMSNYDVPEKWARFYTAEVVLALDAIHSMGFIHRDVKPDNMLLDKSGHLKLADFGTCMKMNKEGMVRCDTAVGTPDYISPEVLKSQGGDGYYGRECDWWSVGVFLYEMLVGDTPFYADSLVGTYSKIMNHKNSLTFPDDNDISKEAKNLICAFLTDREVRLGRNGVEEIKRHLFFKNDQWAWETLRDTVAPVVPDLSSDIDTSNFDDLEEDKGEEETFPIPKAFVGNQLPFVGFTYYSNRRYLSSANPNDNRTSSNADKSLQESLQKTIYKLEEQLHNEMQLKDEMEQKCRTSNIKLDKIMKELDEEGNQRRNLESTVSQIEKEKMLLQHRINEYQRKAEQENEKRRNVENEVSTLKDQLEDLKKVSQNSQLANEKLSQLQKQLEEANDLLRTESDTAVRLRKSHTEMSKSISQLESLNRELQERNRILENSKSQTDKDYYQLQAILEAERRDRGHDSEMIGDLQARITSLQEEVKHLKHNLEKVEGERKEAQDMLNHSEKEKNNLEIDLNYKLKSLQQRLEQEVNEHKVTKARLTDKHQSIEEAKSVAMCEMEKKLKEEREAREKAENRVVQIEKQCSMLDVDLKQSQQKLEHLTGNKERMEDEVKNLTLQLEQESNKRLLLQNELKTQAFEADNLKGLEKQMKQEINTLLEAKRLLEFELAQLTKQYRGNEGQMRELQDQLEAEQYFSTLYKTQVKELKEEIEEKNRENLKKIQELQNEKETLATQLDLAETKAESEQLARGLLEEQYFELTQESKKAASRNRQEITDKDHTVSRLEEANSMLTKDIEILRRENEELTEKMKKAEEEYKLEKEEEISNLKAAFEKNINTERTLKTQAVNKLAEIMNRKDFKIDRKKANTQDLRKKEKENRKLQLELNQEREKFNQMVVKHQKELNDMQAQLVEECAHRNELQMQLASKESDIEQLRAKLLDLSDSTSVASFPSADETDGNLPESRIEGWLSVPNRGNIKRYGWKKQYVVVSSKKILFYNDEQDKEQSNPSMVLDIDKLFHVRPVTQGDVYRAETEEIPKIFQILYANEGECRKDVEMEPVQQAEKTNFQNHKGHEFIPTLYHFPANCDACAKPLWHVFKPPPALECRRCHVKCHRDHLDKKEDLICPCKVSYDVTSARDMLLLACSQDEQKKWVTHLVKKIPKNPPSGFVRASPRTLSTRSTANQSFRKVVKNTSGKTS

Question: How did the dTM [1] turn out when `CN(C(=O)c1cnn2cccnc12)c1cc2c(cc1N1CCOCC1)C(=O)N(C[C@@H](F)C(C)(C)O)C2` was run?
Answer: 0.5 K

Question: With `Nc1cnc(N2CCc3cc(S(=O)(=O)Nc4c(F)cc(Cl)cc4F)cc(N4CCCC4=O)c32)nc1` [TP-020n] as the compound, how does the % of control [2] read?
Answer: 100%

Question: How did the % of control [3] turn out when `N#Cc1cccc(-c2c[nH]c3ncnc(N4CCOCC4)c23)c1` was run?
Answer: 2.7%

Question: Which % of control [4] does the source give for `CNC(=O)Nc1ccc(-c2nc(N3CC4CCC(C3)O4)c3cnn(C4CCC5(CC4)OCCO5)c3n2)cc1` here?
Answer: 100%

Question: `O[C@H]1CC[C@H](Nc2ncc3nc(Nc4c(F)cc(F)cc4F)n([C@H]4CCOC4)c3n2)CC1` was tested. Which % of control [5] did it give?
Answer: 100%

Question: For `CC[C@@H]1[C@H](F)C(=O)N[C@@H]1COc1nccc2cc(C(N)=O)c(OC)cc12` [ZIMLOVISERTIB], which % of inhibition [6] is on record?
Answer: 1.34%

Question: `CN(C)C/C=C/C(=O)Nc1ccc(C(=O)N2CCCC(Nc3ncc(Cl)c(-c4c[nH]c5ccccc45)n3)C2)cc1` (configuration not stated) was tested. Which % of control [7] did it give?
Answer: 78%

From ChEMBL document CHEMBL5465560, “Selectivity Literature for EUbOPEN Chemogenomic Library” (2024)
